Experimental data published in publication PMC12892976, “Alkylation-based optimization of antifungal FPPS inhibitors yields a potent, broad-spectrum lipophilic zoledronate derivative” (mBio, 2025).
In brackets after ≈: the same amount, converted by molar mass. Like-named read-outs stand apart in the source and are kept apart here.

Columns and labels:
Cryptococcus neoformans [1] = assay: MIC/MFC broth microdilution (CLSI); details: Cryptococcus neoformans;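 note: susceptibility testing followed the CLSI M27-Ed4 broth microdilution document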
Experimental: (§1) Antifungal susceptibility was determined by broth microdilution according to the CLSI guidelines described in M27-Ed4 ([16]). […] MFC was determined by back-plating drug-treated cultures from MIC broths onto SDA plates. The MFC was defined as the lowest concentration from which no colonies could be cultured.

Candida albicans [2] = assay: MIC/MFC broth microdilution (CLSI); type: cell-based; details: Candida albicans SC5314
Experimental: as §1

Aspergillus flavus [3] = assay: MIC/MFC broth microdilution (CLSI); details: ATCC204304
Experimental: as §1

eight fungal species [4] = assay: checkerboard interaction with azoles, summary across the eight species; type: cell-based; details: geometric mean MIC in combination with azoles
Description: Synergy between lipophilic FPPS inhibitors and azole antifungals was investigated by determining the fractional inhibitory concentration index (FICI) (Fig. 2; Table S1 Fig. S1) ([17]). […]. Derivatives PLA9 and 11, and PDA9, 11, and 12 antagonized azoles in C. albicans, C. neoformans, and C. deuterogattii, yet were largely synergistic in C. glabrata and S. cerevisiae. […].

Trichophyton rubrum [5] = assay: checkerboard drug interaction (FICI, MICc);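 note: simplified diagonal checkerboard screen pairing azole antifungals with FPPS inhibitors, FICI calculated under the Loewe additivity model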; type: cell-based; details: T. rubrum
Experimental: (§2) Drug interactions between antifungals and FPPS inhibitors were investigated using a simplified checkerboard diagonal screening method ([45]). […] FICIs were determined according to the Loewe additivity model ([17]).

[6] = test system: Cryptococcus deuterogattii; assay: MIC/MFC broth microdilution (CLSI); details: Cryptococcus deuterogattii;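 note: broth microdilution per CLSI M27-Ed4. MFC is the lowest concentration yielding no colonies when MIC broths are subcultured onto SDA plates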
Experimental: as §1

[7] = test system: Cryptococcus deuterogattii; assay: checkerboard drug interaction (FICI, MICc);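 for all read-outs here: simplified diagonal checkerboard screen pairing antifungal drugs with FPPS inhibitors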; type: cell-based; details: C. deuterogattii; for INH FD (MIC-MICc fold decrease): fold decrease of inhibitor MIC
Experimental: as §2

HEK-293T cells = assay: MTT reduction cytotoxicity assay; type: cell-based; details: Homo sapiens, HEK-293T, 72 h, MTT, 72 h
Aspergillus fumigatus [8] = assay: MIC/MFC broth microdilution (CLSI); details: ATCC204305
Experimental: as §1

Candida albicans [9] = assay: checkerboard drug interaction (FICI, MICc);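 for all read-outs here: antifungal plus FPPS inhibitor combinations on Candida albicans tested by a simplified diagonal checkerboard screen, with FICI calculated under the Loewe additivity model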; type: cell-based; details: C. albicans; for INH FD (MIC-MICc fold decrease): fold decrease of inhibitor MIC
Experimental: as §2

Trichophyton rubrum [10] = assay: MIC/MFC broth microdilution (CLSI); details: Trichophyton rubrum
Experimental: as §1

Saccharomyces cerevisiae [11] = assay: checkerboard drug interaction (FICI, MICc); type: cell-based; parameters: INH MICc / INH MICc (ITR:INH) / INH MICc (KET:INH) / INH MICc (FLC:INH): unit not given beside the values;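 note: simplified diagonal checkerboard screen pairing antifungals with FPPS inhibitors, FICI calculated under the Loewe additivity model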
eight fungal species [12] = assay: MIC/MFC summary across the eight fungal species of Table 1; type: cell-based
Experimental: The antifungal activity of these compounds was evaluated according to CLSI guidelines ([16]).

Candida glabrata [13] = assay: checkerboard drug interaction (FICI, MICc);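 for all read-outs here: simplified diagonal checkerboard screen pairing antifungals with FPPS inhibitors, FICI calculated under the Loewe additivity model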; type: cell-based; details: C. glabrata; for INH FD (MIC-MICc fold decrease): fold decrease of inhibitor MIC
Experimental: as §2

Aspergillus fumigatus [14] = assay: checkerboard drug interaction (FICI, MICc); type: cell-based;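 note: simplified diagonal checkerboard screen pairing antifungals with FPPS inhibitors against Aspergillus fumigatus, with FICI calculated under the Loewe additivity model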
Experimental: as §2

Cryptococcus neoformans [15] = assay: checkerboard drug interaction (FICI, MICc);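 for all read-outs here: antifungal plus FPPS inhibitor pairs tested against Cryptococcus neoformans by simplified diagonal checkerboard screening, FICI computed under the Loewe additivity model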; type: cell-based; details: C. neoformans; for INH FD (MIC-MICc fold decrease): fold decrease of inhibitor MIC
Experimental: as §2

Aspergillus flavus [16] = assay: checkerboard drug interaction (FICI, MICc);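 note: simplified diagonal checkerboard screen pairing azole antifungals with FPPS inhibitors, FICI calculated under the Loewe additivity model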; type: cell-based; parameters: INH MICc (KET:INH) / INH MICc (FLC:INH): unit not given beside the values; details: A. flavus
Candida glabrata [17] = assay: MIC/MFC broth microdilution (CLSI); details: Nakaseomyces glabratus, CBS138;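 note: broth microdilution following CLSI M27-Ed4, MFC taken as the lowest drug level yielding no growth once MIC wells were subcultured on SDA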
Experimental: as §1

Saccharomyces cerevisiae [18] = assay: MIC/MFC broth microdilution (CLSI); type: cell-based; details: Saccharomyces cerevisiae S288c
Experimental: as §1

[19] = Fractional Inhibitory Concentration Index, fluconazole + inhibitor
[20] = Fractional Inhibitory Concentration Index, itraconazole + inhibitor
[21] = Fractional Inhibitory Concentration Index, ketoconazole + inhibitor
[22] = MIC of the inhibitor in combination with fluconazole
[23] = MIC of the inhibitor in combination with itraconazole
[24] = MIC of the inhibitor in combination with ketoconazole
[25] = MIC-MICc fold decrease of fluconazole, negative = increase
[26] = MIC-MICc fold decrease of itraconazole, negative = increase
[27] = MIC-MICc fold decrease of ketoconazole, negative = increase
[28] = MIC-MICc fold decrease of the inhibitor, with fluconazole
[29] = MIC-MICc fold decrease of the inhibitor, with itraconazole
[30] = MIC-MICc fold decrease of the inhibitor, with ketoconazole
[31] = FLC:INH combination, MIC of the inhibitor in combination with FLC
[32] = FLC:INH combination, fold decrease of FLC MIC
[33] = ITR:INH combination, MIC of the inhibitor in combination with ITR
[34] = ITR:INH combination, fold decrease of ITR MIC
[35] = KET:INH combination, MIC of the inhibitor in combination with KET
[36] = KET:INH combination, fold decrease of KET MIC

CCCCCCCCCN1CCC[C@H]1C(=O)N[C@H](CC(=O)OC)C(=O)OC [dmPDA9]
MFC (Cryptococcus neoformans [1]): 128 µg/mL (≈ 333 µM) | MIC (Cryptococcus neoformans [1]): 32 µg/mL (≈ 83.2 µM) | MFC (Candida albicans [2]): > 128 µg/mL | MIC (Candida albicans [2]): 128 µg/mL (≈ 333 µM) | MFC (Aspergillus flavus [3]): > 128 µg/mL | MIC (Aspergillus flavus [3]): > 128 µg/mL | GM fungal MICc (eight fungal species [4]): 55.4 | FICI (FLC:INH) (Trichophyton rubrum [5]; [19]): 1.25 | FICI (ITR:INH) (Trichophyton rubrum [5]; [20]): 1.13 | FICI (KET:INH) (Trichophyton rubrum [5]; [21]): 1.25 | INH MICc (FLC:INH) (Trichophyton rubrum [5]; [22]): 32 | INH MICc (ITR:INH) (Trichophyton rubrum [5]; [23]): 32 | INH MICc (KET:INH) (Trichophyton rubrum [5]; [24]): 32 | FLC FD (FLC:INH) (Trichophyton rubrum [5]; [25]): 4 | ITR FD (ITR:INH) (Trichophyton rubrum [5]; [26]): 8 | KET FD (KET:INH) (Trichophyton rubrum [5]; [27]): 4 | INH FD (FLC:INH) (Trichophyton rubrum [5]; [28]): 1 | INH FD (ITR:INH) (Trichophyton rubrum [5]; [29]): 1 | INH FD (KET:INH) (Trichophyton rubrum [5]; [30]): 1 | MFC [6]: 64 µg/mL (≈ 166 µM) | MIC [6]: 64 µg/mL (≈ 166 µM) | FICI ([7]; FLC:INH combination): 3 | INH MICc [7, 31]: 128 | FLC FD (MIC-MICc fold decrease) [7, 32]: -2 | INH FD (MIC-MICc fold decrease) ([7]; FLC:INH combination): 1 | FICI ([7]; ITR:INH combination): 1.25 | INH MICc [7, 33]: 32 | ITR FD (MIC-MICc fold decrease) [7, 34]: 1 | INH FD (MIC-MICc fold decrease) ([7]; ITR:INH combination): 4 | FICI ([7]; KET:INH combination): 1.5 | INH MICc [7, 35]: 128 | KET FD (MIC-MICc fold decrease) [7, 36]: 2 | INH FD (MIC-MICc fold decrease) ([7]; KET:INH combination): 1 | IC50 (HEK-293T cells; HEK-293T cells, read-out: IC50): 10.4 µg/mL (≈ 27.2 µM) | IC50 (HEK-293T cells; read-out: HEK IC50): 10.4 µg/mL (≈ 27.2 µM) | MFC (Aspergillus fumigatus [8]): > 128 µg/mL | MIC (Aspergillus fumigatus [8]): 128 µg/mL (≈ 333 µM) | FICI (Candida albicans [9]; FLC:INH combination): ≥4 | INH MICc (Candida albicans [9]; [31]): 64 | FLC FD (MIC-MICc fold decrease) (Candida albicans [9]; [32]): < -4 | INH FD (MIC-MICc fold decrease) (Candida albicans [9]; FLC:INH combination): 2 | FICI (Candida albicans [9]; ITR:INH combination): ≥4 | INH MICc (Candida albicans [9]; [33]): 64 | ITR FD (MIC-MICc fold decrease) (Candida albicans [9]; [34]): < -4 | INH FD (MIC-MICc fold decrease) (Candida albicans [9]; ITR:INH combination): 2 | FICI (Candida albicans [9]; KET:INH combination): ≥4 | INH MICc (Candida albicans [9]; [35]): 64 | KET FD (MIC-MICc fold decrease) (Candida albicans [9]; [36]): < -4 | INH FD (MIC-MICc fold decrease) (Candida albicans [9]; KET:INH combination): 2 | MFC (Trichophyton rubrum [10]): > 128 µg/mL | MIC (Trichophyton rubrum [10]): 32 µg/mL (≈ 83.2 µM) | FICI (FLC:INH) (Saccharomyces cerevisiae [11]; [19]): 1.5 | FICI (ITR:INH) (Saccharomyces cerevisiae [11]; [20]): 3 | FICI (KET:INH) (Saccharomyces cerevisiae [11]; [21]): 2.5 | INH MICc (FLC:INH) (Saccharomyces cerevisiae [11]; [22]): 64 | INH MICc (ITR:INH) (Saccharomyces cerevisiae [11]; [23]): 64 | INH MICc (KET:INH) (Saccharomyces cerevisiae [11]; [24]): 128 | FLC FD (FLC:INH) (Saccharomyces cerevisiae [11]; [25]): 2 | ITR FD (ITR:INH) (Saccharomyces cerevisiae [11]; [26]): -2 | KET FD (KET:INH) (Saccharomyces cerevisiae [11]; [27]): 2 | INH FD (FLC:INH) (Saccharomyces cerevisiae [11]; [28]): 1 | INH FD (ITR:INH) (Saccharomyces cerevisiae [11]; [29]): 1 | INH FD (KET:INH) (Saccharomyces cerevisiae [11]; [30]): -2 | MFC (eight fungal species [12]; across eight species, read-out: Geometric mean MFC): 181 µg/mL (≈ 471 µM) | MIC (eight fungal species [12]; geometric mean across eight species, read-out: GM fungal MIC): 83 µg/mL (≈ 216 µM) | MIC (eight fungal species [12]; read-out: Geometric mean MIC): 83 µg/mL (≈ 216 µM) | FICI (Candida glabrata [13]; FLC:INH combination): 2.5 | INH MICc (Candida glabrata [13]; [31]): 32 | FLC FD (MIC-MICc fold decrease) (Candida glabrata [13]; [32]): -2 | INH FD (MIC-MICc fold decrease) (Candida glabrata [13]; FLC:INH combination): 4 | FICI (Candida glabrata [13]; ITR:INH combination): 1.13 | INH MICc (Candida glabrata [13]; [33]): 8 | ITR FD (MIC-MICc fold decrease) (Candida glabrata [13]; [34]): 1 | INH FD (MIC-MICc fold decrease) (Candida glabrata [13]; ITR:INH combination): 16 | FICI (Candida glabrata [13]; KET:INH combination): 1.13 | INH MICc (Candida glabrata [13]; [35]): 8 | KET FD (MIC-MICc fold decrease) (Candida glabrata [13]; [36]): 1 | INH FD (MIC-MICc fold decrease) (Candida glabrata [13]; KET:INH combination): 16 | FICI (FLC:INH) (Aspergillus fumigatus [14]; [19]): 1.5 | FICI (ITR:INH) (Aspergillus fumigatus [14]; [20]): 0.52 | FICI (KET:INH) (Aspergillus fumigatus [14]; [21]): 2 | INH MICc (FLC:INH) (Aspergillus fumigatus [14]; [22]): 128 | INH MICc (ITR:INH) (Aspergillus fumigatus [14]; [23]): 2 | INH MICc (KET:INH) (Aspergillus fumigatus [14]; [24]): 128 | FLC FD (FLC:INH) (Aspergillus fumigatus [14]; [25]): 2 | ITR FD (ITR:INH) (Aspergillus fumigatus [14]; [26]): 2 | KET FD (KET:INH) (Aspergillus fumigatus [14]; [27]): 1 | INH FD (FLC:INH) (Aspergillus fumigatus [14]; [28]): 1 | INH FD (ITR:INH) (Aspergillus fumigatus [14]; [29]): 64 | INH FD (KET:INH) (Aspergillus fumigatus [14]; [30]): 1 | FICI (Cryptococcus neoformans [15]; FLC:INH combination): 1.25 | INH MICc (Cryptococcus neoformans [15]; [31]): 32 | FLC FD (MIC-MICc fold decrease) (Cryptococcus neoformans [15]; [32]): 1 | INH FD (MIC-MICc fold decrease) (Cryptococcus neoformans [15]; FLC:INH combination): 4 | FICI (Cryptococcus neoformans [15]; ITR:INH combination): ≥4 | INH MICc (Cryptococcus neoformans [15]; [33]): 128 | ITR FD (MIC-MICc fold decrease) (Cryptococcus neoformans [15]; [34]): -4 | INH FD (MIC-MICc fold decrease) (Cryptococcus neoformans [15]; ITR:INH combination): 1 | FICI (Cryptococcus neoformans [15]; KET:INH combination): ≥4 | INH MICc (Cryptococcus neoformans [15]; [35]): 128 | KET FD (MIC-MICc fold decrease) (Cryptococcus neoformans [15]; [36]): -4 | INH FD (MIC-MICc fold decrease) (Cryptococcus neoformans [15]; KET:INH combination): 1 | FICI (FLC:INH) (Aspergillus flavus [16]; [19]): 2 | FICI (ITR:INH) (Aspergillus flavus [16]; [20]): 2 | FICI (KET:INH) (Aspergillus flavus [16]; [21]): 1 | INH MICc (FLC:INH) (Aspergillus flavus [16]; [22]): 256 | INH MICc (ITR:INH) (Aspergillus flavus [16]; [23]): 256 | INH MICc (KET:INH) (Aspergillus flavus [16]; [24]): 128 | FLC FD (FLC:INH) (Aspergillus flavus [16]; [25]): 1 | ITR FD (ITR:INH) (Aspergillus flavus [16]; [26]): 1 | KET FD (KET:INH) (Aspergillus flavus [16]; [27]): 2 | INH FD (FLC:INH) (Aspergillus flavus [16]; [28]): 1 | INH FD (ITR:INH) (Aspergillus flavus [16]; [29]): 1 | INH FD (KET:INH) (Aspergillus flavus [16]; [30]): 2 | MFC (Candida glabrata [17]): > 128 µg/mL | MIC (Candida glabrata [17]): 128 µg/mL (≈ 333 µM) | MFC (Saccharomyces cerevisiae [18]): 128 µg/mL (≈ 333 µM) | MIC (Saccharomyces cerevisiae [18]): 64 µg/mL (≈ 166 µM)
